Measured values published in article PMC3705412, “PTP1B Inhibitory and Anti-Inflammatory Effects of Secondary Metabolites Isolated from the Marine-Derived Fungus Penicillium sp. JF-55” (Marine Drugs, 2013).
pIC50: −log10 of the molar value.

Experiments:
Format in all cases: cell-based, murine (C57BL/6 mice)
NF-κB = experiment: DNA-binding activity of NF-κB in nuclear extracts (TransAM kit); conditions: pre-treatment 12 h, LPS 1 μg/mL 1 h
Method: (§1) Figure 5 The effects of penstyrylpyrone (1) on the protein expression level of IκB-α phosphorylation, degradation of IκB-α (A), NF-κB translocation (B), and NF-κB DNA binding activity (C) in murine peritoneal macrophages. Murine peritoneal macrophages were pre-treated for 12 h at the indicated concentrations of penstyrylpyrone (1), and stimulated for 1 h with LPS (1 μg/mL). Western blotting analysis of IκB-α and p-IκB-α in the cytoplasm and NF-κB in the nucleus (A, B) were performed. A commercially available NF-κB ELISA (Active Motif) was used to test the nuclear extracts and to determine the degree of NF-κB binding (C). The data represent the mean values ± SD of three experiments. *p < 0.05 compared with the group treated with LPS.
C57BL/6 mice were purchased from Orient Bio Co. (Sungnam, Kyung-Kido, Korea). […]
(§2) Murine peritoneal macrophages were homogenized (1:20, w:v) in PER-Mammalian Protein Extraction buffer (Pierce Biotechnology, Rockford, IL, USA) containing freshly added protease inhibitor cocktail I (EMD Biosciences, San Diego, CA, USA) and 1 mM phenylmethylsulfonyl fluoride (PMSF). […] The protein concentration was determined using the bicinchoninic acid (BCA) protein assay kit.
The DNA-binding activity of NF-κB in the nuclear extracts was measured using the TransAM kit (Active Motif, Carlsbad, CA, USA) according to the manufacturer’s instructions.

[1] = system: anti-oxidant response element (ARE); experiment: ARE-luciferase activation in macrophages; conditions: 1 h, 5% FBS
Method: Figure 7 The effects of penstyrylpyrone (1) on the nuclear translocation of Nrf2 (A) and anti-oxidant response element (ARE) activation (B) in murine peritoneal macrophages. Murine peritoneal macrophages were treated with 40 μM of penstyrylpyrone (1) for 15, 30, 60, 90 and 120 min. The nuclei were fractionated from the cytosol using PER-Mammalian Protein Extraction buffer. Nrf2 protein was detected using Western blotting analysis and representative blots of three independent experiments are shown. Quiescent cells transiently transfected with ARE-luciferase or control vector were incubated for 1 h with indicated concentrations of latifolin in the presence of 5% FBS. Cell lysates were assayed for luciferase activity and depicted by fold induction by normalizing the transfection efficiency and dividing the values of each experiment relative to the control. * p < 0.05 compared to the control group.

[2] = system: IL-1β production in murine peritoneal macrophages; experiment: IL-1β production in LPS-stimulated macrophages, ELISA; conditions: Mus musculus, Peritoneal macrophage; pre-treated 12 h, LPS 1 μg/mL 18 h
Method: C57BL/6 mice were purchased from Orient Bio Co. (Sungnam, Kyung-Kido, Korea). TG-elicited peritoneal macrophages were harvested four days after intraperitoneal (i.p.) injection of 3 mL of TG [37]. Peritoneal lavage was performed using 8 mL of Hanks’ Balanced Salt Solution containing 10 U/mL heparin. The cells were distributed in Roswell Park Memorial Institute medium (RPMI) supplemented with 10% heat-inactivated FBS, in 6-well tissue culture plates (5 × 10^6 cells/mL). The level of PGE2, TNF-α or IL-1β present in each sample was determined using a commercially available kit from R & D Systems. The assay was performed according to the manufacturer’s instructions. Briefly, murine peritoneal macrophages were cultured in 24-well plates, pre-incubated for 12 h with different concentrations of compounds 1–3, and then stimulated for 18 h with LPS. The cell culture supernatants were then immediately collected after treatment and centrifuged at 13,000× g for 2 min to remove particulate matter. The medium was added to a 96-well plate pre-coated with affinity-purified PGE2-specific polyclonal antibodies or the medium was added to a 96-well plate pre-coated with affinity-purified polyclonal antibodies that were specific to mouse TNF-α or IL-1β. An enzyme-linked polyclonal antibody specific for PGE2, mouse TNF-α or IL-1β was added to the wells for 20 h, followed by a final wash to remove any unbound antibody-enzyme reagent. A substrate solution was added, and the intensity of the color produced, which was measured at 450 nm (the correction wavelength was set at 540 nm or 570 nm), was proportional to the amount of PGE2, TNF-α or IL-1β present.

NF-κB (p65) = experiment: Western blotting of NF-κB (p65) nuclear translocation in LPS-stimulated macrophages; conditions: pre-treatment 12 h, LPS 1 μg/mL 1 h
Method: as §1, with “The data represent the mean values ± SD of three experiments. *p < 0.05 compared with the group treated with LPS.” left out
as §2
(§3) Western blotting analysis was performed by lysing the cells in 20 mM Tris-HCl buffer (pH 7.4) containing a protease inhibitor mixture (0.1 mM PMSF, 5 mg/mL aprotinin, 5 mg/mL pepstatin A, and 1 mg/mL chymostatin). The protein concentration was determined using a Lowry protein assay kit (P5626; Sigma Chemical Co., St. Louis, MO, USA). […]

COX-2 = experiment: Western blotting of COX-2 protein expression in LPS-stimulated macrophages; conditions: pre-treatment 12 h, LPS 1 μg/mL 18 h
Method: Figure 3 The effects of penstyrylpyrone (1) (A), anhydrofulvic acid (2) (B), and citromycetin (3) (C) on the protein expression of iNOS and COX-2 in murine peritoneal macrophages stimulated with LPS. Murine peritoneal macrophages were pre-treated for 12 h at the indicated compound concentrations and stimulated for 18 h with LPS (1 μg/mL). Western blotting analysis was performed, and the representative blots of three independent experiments are shown.
C57BL/6 mice were purchased from Orient Bio Co. (Sungnam, Kyung-Kido, Korea). TG-elicited peritoneal macrophages were harvested four days after intraperitoneal (i.p.) injection of 3 mL of TG [37]. Peritoneal lavage was performed using 8 mL of Hanks’ Balanced Salt Solution containing 10 U/mL heparin. The cells were distributed in Roswell Park Memorial Institute medium (RPMI) supplemented with 10% heat-inactivated FBS, in 6-well tissue culture plates (5 × 10^6 cells/mL).
as §3

- pIC50 [2]: 4.87
Compound: COc1cc(/C=C/c2ccccc2)oc(=O)c1C [Penstyrylpyrone (1), penstyrylpyrone]
- NF-κB DNA-binding activity (NF-κB): impaired this activity in a concentration-dependent manner
- ARE activation (luciferase) [1]: gradually increased in a dose-dependent manner
- Nuclear p65 protein levels (NF-κB translocation) (NF-κB (p65)): gradually inhibited
- COX-2 expression (COX-2): decreased
